# Measured values published in PubChem BioAssay AID2060500 (Molecular Pharmacology Branch, DTP, NCI, 2025).
# System: 596521-263-R-J1-PDC complex spheroids, viability % of control
# Experiment: Anticancer human tumor 596521-263-R-J1-PDC patient-derived soft tissue sarcoma cell line growth inhibition [GQUAD]
# Settings: for IC50: curve of first compound; for viability, T/C: stronger effect = lower value
# Method in brief: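 Tumor cells were grown as complex spheroids with HUVEC endothelial cells and mesenchymal stem cells as stroma. G-quadruplex stabilizers were combined with targeted agents over half-log dilutions from near the clinical Cmax, or from 10 microM.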
# [1] = second compound 0.0316 µM, first compound 0.0316 µM
# [2] = second compound 0.0316 µM, first compound 0.1 µM
# [3] = second compound 0.0316 µM, first compound 0.316 µM
# [4] = second compound 0.0316 µM, first compound 1 µM
# [5] = second compound 0.0316 µM, first compound 3.16 µM
# [6] = second compound 0.0316 µM, first compound 10 µM
# [7] = second compound 0.1 µM, first compound 0.0316 µM
# [8] = second compound 0.1 µM, first compound 0.1 µM
# [9] = second compound 0.1 µM, first compound 0.316 µM
# [10] = second compound 0.1 µM, first compound 1 µM
# [11] = second compound 0.1 µM, first compound 3.16 µM
# [12] = second compound 0.1 µM, first compound 10 µM
# [13] = second compound 0.316 µM, first compound 0.0316 µM
# [14] = second compound 0.316 µM, first compound 0.1 µM
# [15] = second compound 0.316 µM, first compound 0.316 µM
# [16] = second compound 0.316 µM, first compound 1 µM
# [17] = second compound 0.316 µM, first compound 3.16 µM
# [18] = second compound 0.316 µM, first compound 10 µM
# [19] = second compound 1 µM, first compound 0.0316 µM
# [20] = second compound 1 µM, first compound 0.1 µM
# [21] = second compound 1 µM, first compound 0.316 µM
# [22] = second compound 1 µM, first compound 1 µM
# [23] = second compound 1 µM, first compound 3.16 µM
# [24] = second compound 1 µM, first compound 10 µM
# [25] = second compound 3.16 µM, first compound 0.0316 µM
# [26] = second compound 3.16 µM, first compound 0.1 µM
# [27] = second compound 3.16 µM, first compound 0.316 µM
# [28] = second compound 3.16 µM, first compound 1 µM
# [29] = second compound 3.16 µM, first compound 3.16 µM
# [30] = second compound 3.16 µM, first compound 10 µM
# [31] = second compound 10 µM, first compound 0.0316 µM
# [32] = second compound 10 µM, first compound 0.1 µM
# [33] = second compound 10 µM, first compound 0.316 µM
# [34] = second compound 10 µM, first compound 1 µM
# [35] = second compound 10 µM, first compound 3.16 µM
# [36] = second compound 10 µM, first compound 10 µM
# 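Note: spheroids exposed to drugs for 7 days before viability reading.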
# 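Throughout, for viability, T/C: 100% = DMSO vehicle control viability.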
smiles,measurement,setting,value
CC1COCCN1c1cc(C2(S(C)(=N)=O)CC2)nc(-c2ccnc3[nH]ccc23)n1 (stereo not given) + Cc1cnc(CNC(=O)c2c(=O)c3ccc(N4CCCN(C)CC4)nc3n3c2sc2ccccc23)cn1,IC50,second compound 0.0316 µM,8980 nM
same,IC50,second compound 0.1 µM,6390 nM
same,IC50,second compound 0.316 µM,> 10000 nM
same,IC50,second compound 1 µM,6210 nM
same,IC50,second compound 3.16 µM,103 nM
same,IC50,second compound 10 µM,< 31.6 nM
same,"viability, T/C",[1],91.2%
same,"viability, T/C",[2],101%
same,"viability, T/C",[3],86.4%
same,"viability, T/C",[4],87.3%
same,"viability, T/C",[5],67.1%
same,"viability, T/C",[6],48.3%
same,"viability, T/C",[7],84%
same,"viability, T/C",[8],93.5%
same,"viability, T/C",[9],76.1%
same,"viability, T/C",[10],72.5%
same,"viability, T/C",[11],59.4%
same,"viability, T/C",[12],44.2%
same,"viability, T/C",[13],83%
same,"viability, T/C",[14],75.5%
same,"viability, T/C",[15],66.7%
same,"viability, T/C",[16],72.1%
same,"viability, T/C",[17],55.6%
same,"viability, T/C",[18],51.8%
same,"viability, T/C",[19],58%
same,"viability, T/C",[20],64.6%
same,"viability, T/C",[21],66.7%
same,"viability, T/C",[22],56.8%
same,"viability, T/C",[23],53%
same,"viability, T/C",[24],47.4%
same,"viability, T/C",[25],57%
same,"viability, T/C",[26],50.5%
same,"viability, T/C",[27],48.1%
same,"viability, T/C",[28],45.1%
same,"viability, T/C",[29],51.9%
same,"viability, T/C",[30],47%
same,"viability, T/C",[31],46.6%
same,"viability, T/C",[32],41.9%
same,"viability, T/C",[33],49.3%
same,"viability, T/C",[34],39.4%
same,"viability, T/C",[35],40.3%
same,"viability, T/C",[36],37.6%
COc1cc(C2c3cc4c(cc3C(OC3OC5COC(C)OC5C(O)C3O)C3COC(=O)C23)OCO4)cc(OC)c1O (stereo not given) + Cc1[nH]c2ccc(F)cc2c1-c1nc2c3cccnc3c3ncccc3c2[nH]1,IC50,second compound 0.0316 µM,5370 nM
same,IC50,second compound 0.1 µM,> 10000 nM
same,IC50,second compound 0.316 µM,> 10000 nM
same,IC50,second compound 1 µM,5420 nM
same,IC50,second compound 3.16 µM,8310 nM
same,IC50,second compound 10 µM,970 nM
same,"viability, T/C",[1],107%
same,"viability, T/C",[2],78.9%
same,"viability, T/C",[3],78.4%
same,"viability, T/C",[4],66.8%
same,"viability, T/C",[5],51.6%
same,"viability, T/C",[6],45.8%
same,"viability, T/C",[7],93%
same,"viability, T/C",[8],86.8%
same,"viability, T/C",[9],79.3%
same,"viability, T/C",[10],66.3%
same,"viability, T/C",[11],58.3%
same,"viability, T/C",[12],53.3%
same,"viability, T/C",[13],93.4%
same,"viability, T/C",[14],104%
same,"viability, T/C",[15],87.3%
same,"viability, T/C",[16],54.1%
same,"viability, T/C",[17],57.9%
same,"viability, T/C",[18],50.3%
same,"viability, T/C",[19],102%
same,"viability, T/C",[20],85.2%
same,"viability, T/C",[21],79.5%
same,"viability, T/C",[22],60.9%
same,"viability, T/C",[23],55.7%
same,"viability, T/C",[24],44.8%
same,"viability, T/C",[25],92.8%
same,"viability, T/C",[26],82%
same,"viability, T/C",[27],79.3%
same,"viability, T/C",[28],60.3%
same,"viability, T/C",[29],63.6%
same,"viability, T/C",[30],46.4%
same,"viability, T/C",[31],67.4%
same,"viability, T/C",[32],64.3%
same,"viability, T/C",[33],65%
same,"viability, T/C",[34],49.2%
same,"viability, T/C",[35],43.9%
same,"viability, T/C",[36],39.5%
O=C(NO)c1cnc(N2CCN(S(=O)(=O)c3ccc4ccccc4c3)CC2)nc1 + Cc1[nH]c2ccc(F)cc2c1-c1nc2c3cccnc3c3ncccc3c2[nH]1,IC50,second compound 0.0316 µM,< 31.6 nM
same,IC50,second compound 0.1 µM,< 31.6 nM
same,IC50,second compound 0.316 µM,< 31.6 nM
same,IC50,second compound 1 µM,< 31.6 nM
same,IC50,second compound 3.16 µM,< 31.6 nM
same,IC50,second compound 10 µM,< 31.6 nM
same,"viability, T/C",[1],37.6%
same,"viability, T/C",[2],28.2%
same,"viability, T/C",[3],30.4%
same,"viability, T/C",[4],28.5%
same,"viability, T/C",[5],27.2%
same,"viability, T/C",[6],30.4%
same,"viability, T/C",[7],39.1%
same,"viability, T/C",[8],25.8%
same,"viability, T/C",[9],25.8%
same,"viability, T/C",[10],22%
same,"viability, T/C",[11],29.8%
same,"viability, T/C",[12],28%
same,"viability, T/C",[13],38.3%
same,"viability, T/C",[14],29.6%
same,"viability, T/C",[15],29.6%
same,"viability, T/C",[16],27%
same,"viability, T/C",[17],26.9%
same,"viability, T/C",[18],25.5%
same,"viability, T/C",[19],39.1%
same,"viability, T/C",[20],30.3%
same,"viability, T/C",[21],29.2%
same,"viability, T/C",[22],25.8%
same,"viability, T/C",[23],27.6%
same,"viability, T/C",[24],29.3%
same,"viability, T/C",[25],39.5%
same,"viability, T/C",[26],34.5%
same,"viability, T/C",[27],29.7%
same,"viability, T/C",[28],27.1%
same,"viability, T/C",[29],26.1%
same,"viability, T/C",[30],27.7%
same,"viability, T/C",[31],44.2%
same,"viability, T/C",[32],31.5%
same,"viability, T/C",[33],29.5%
same,"viability, T/C",[34],28.9%
same,"viability, T/C",[35],29.6%
same,"viability, T/C",[36],29.8%
COc1cccc2c1C(=O)c1c(O)c3c(c(O)c1C2=O)CC(O)(C(=O)CO)CC3OC1CC(N)C(O)C(C)O1 (stereo not given) + Cc1cnc(CNC(=O)c2c(=O)c3ccc(N4CCCN(C)CC4)nc3n3c2sc2ccccc23)cn1,IC50,second compound 0.0316 µM,750 nM
same,IC50,second compound 0.1 µM,784 nM
same,IC50,second compound 0.316 µM,795 nM
same,IC50,second compound 1 µM,511 nM
same,IC50,second compound 3.16 µM,338 nM
same,IC50,second compound 10 µM,< 31.6 nM
same,"viability, T/C",[1],98.3%
same,"viability, T/C",[2],71.2%
same,"viability, T/C",[3],66.6%
same,"viability, T/C",[4],52.3%
same,"viability, T/C",[5],26.5%
same,"viability, T/C",[6],4.29%
same,"viability, T/C",[7],87.2%
same,"viability, T/C",[8],73.8%
same,"viability, T/C",[9],57.1%
same,"viability, T/C",[10],51.1%
same,"viability, T/C",[11],31%
same,"viability, T/C",[12],4.25%
same,"viability, T/C",[13],78.7%
same,"viability, T/C",[14],70.4%
same,"viability, T/C",[15],55.5%
same,"viability, T/C",[16],51.4%
same,"viability, T/C",[17],29%
same,"viability, T/C",[18],3.29%
same,"viability, T/C",[19],69.6%
same,"viability, T/C",[20],53%
same,"viability, T/C",[21],50.7%
same,"viability, T/C",[22],47.2%
same,"viability, T/C",[23],30.7%
same,"viability, T/C",[24],2.51%
same,"viability, T/C",[25],50.7%
same,"viability, T/C",[26],49%
same,"viability, T/C",[27],52.7%
same,"viability, T/C",[28],45.2%
same,"viability, T/C",[29],23.8%
same,"viability, T/C",[30],0.29%
same,"viability, T/C",[31],46.8%
same,"viability, T/C",[32],49.5%
same,"viability, T/C",[33],46.4%
same,"viability, T/C",[34],44.3%
same,"viability, T/C",[35],11.4%
same,"viability, T/C",[36],0.27%
CC1COCCN1c1cc(C2(O)CC3CCC(C2)O3)c2cnn(-c3ccn[nH]3)c2n1 (stereo not given) + CN(C)c1ccc(Nc2c3ccc(NC(=O)CCN4CCCC4)cc3nc3cc(NC(=O)CCN4CCCC4)ccc23)cc1,IC50,second compound 0.0316 µM,134 nM
same,IC50,second compound 0.1 µM,221 nM
same,IC50,second compound 0.316 µM,148 nM
same,IC50,second compound 1 µM,162 nM
same,IC50,second compound 3.16 µM,112 nM
same,IC50,second compound 10 µM,66.4 nM
same,"viability, T/C",[1],72.6%
same,"viability, T/C",[2],48.7%
same,"viability, T/C",[3],40.9%
same,"viability, T/C",[4],29.4%
same,"viability, T/C",[5],24.3%
same,"viability, T/C",[6],12.3%
same,"viability, T/C",[7],70.3%
same,"viability, T/C",[8],56.9%
same,"viability, T/C",[9],48.3%
same,"viability, T/C",[10],32.6%
same,"viability, T/C",[11],22.8%
same,"viability, T/C",[12],13.6%
same,"viability, T/C",[13],66.3%
same,"viability, T/C",[14],48.8%
same,"viability, T/C",[15],47.3%
same,"viability, T/C",[16],31.9%
same,"viability, T/C",[17],20.4%
same,"viability, T/C",[18],13.2%
same,"viability, T/C",[19],69.6%
same,"viability, T/C",[20],50.3%
same,"viability, T/C",[21],46.6%
same,"viability, T/C",[22],31.1%
same,"viability, T/C",[23],24.7%
same,"viability, T/C",[24],14.3%
same,"viability, T/C",[25],58.5%
same,"viability, T/C",[26],51.2%
same,"viability, T/C",[27],40.5%
same,"viability, T/C",[28],35.2%
same,"viability, T/C",[29],23.9%
same,"viability, T/C",[30],15.6%
same,"viability, T/C",[31],61.7%
same,"viability, T/C",[32],39%
same,"viability, T/C",[33],36.8%
same,"viability, T/C",[34],28.2%
same,"viability, T/C",[35],21.6%
same,"viability, T/C",[36],14.8%
